Measured values published in the kinase profiling compilation of Christmann-Franck et al. (2016).
Where “and” joins values, the source holds several entries; their conditions need not be identical. Identical values can stand only once.

Tests used:
Experiment in all cases: KINOMEscan competition binding
Settings in all cases: compound 10.0 µM
ACVR1B (human) = ACVR1B (human) (UniProt P36896)
BMPR1A (human) = BMPR1A (human) (UniProt P36894)
BMPR1B (human) = BMPR1B (human) (UniProt O00238)
BRSK1 (human) = BRSK1 (human) (UniProt Q8TDC3)
CAMK4 (human) = CAMK4 (human) (UniProt Q16566)
CAMKK1 (human) = CAMKK1 (human) (UniProt Q8N5S9)
CLK4 (human) = CLK4 (human) (UniProt Q9HAZ1)
DAPK3 (human) = DAPK3 (human) (UniProt O43293)
DDR2 (human) = DDR2 (human) (UniProt Q16832)
EPHA2 (human) = EPHA2 (human) (UniProt P29317)
FER (human) = FER (human) (UniProt P16591)
FES (human) = FES (human) (UniProt P07332)
FGFR2 (human) = FGFR2 (human) (UniProt P21802)
FLT4 (human) = FLT4 (human) (UniProt P35916)
IGF1R (human) = IGF1R (human) (UniProt P08069)
MAK (human) = MAK (human) (UniProt P20794)
MAP2K3 (human) = MAP2K3 (human) (UniProt P46734)
MAP2K5 (human) = MAP2K5 (human) (UniProt Q13163)
MAP4K4 (human) = MAP4K4 (human) (UniProt O95819)
MAPK14 (human) = MAPK14 (human) (UniProt Q16539)
MAPK7 (human) = MAPK7 (human) (UniProt Q13164)
MET (human) = MET (human) (UniProt P08581)
NEK2 (human) = NEK2 (human) (UniProt P51955)
NLK (human) = NLK (human) (UniProt Q9UBE8)
NUAK2 (human) = NUAK2 (human) (UniProt Q9H093)
PAK6 (human) = PAK6 (human) (UniProt Q9NQU5)
PDGFRA (human) = PDGFRA (human) (UniProt P16234)
PHKG1 (human) = PHKG1 (human) (UniProt Q16816)
PIK3C2G (human) = PIK3C2G (human) (UniProt O75747)
PIM2 (human) = PIM2 (human) (UniProt Q9P1W9)
PKN2 (human) = PKN2 (human) (UniProt Q16513)
PKN3 (M.tuberculosis) = PKN3 (M.tuberculosis) (UniProt Q6P5Z2)
RET (human) = RET (human) (UniProt P07949)
RIOK1 (human) = RIOK1 (human) (UniProt Q9BRS2)
RPS6KA1 KD1 (human) = RPS6KA1 KD1 (human) (UniProt Q15418)
RPS6KA6 KD1 (human) = RPS6KA6 KD1 (human) (UniProt Q9UK32)
STK10 (human) = STK10 (human) (UniProt O94804)
TAOK3 (human) = TAOK3 (human) (UniProt Q9H2K8)
TGFBR1 (human) = TGFBR1 (human) (UniProt P36897)
ULK1 (human) = ULK1 (human) (UniProt O75385)

Sequence of MAP4K4 (human) (O95819 whole entry, looked up): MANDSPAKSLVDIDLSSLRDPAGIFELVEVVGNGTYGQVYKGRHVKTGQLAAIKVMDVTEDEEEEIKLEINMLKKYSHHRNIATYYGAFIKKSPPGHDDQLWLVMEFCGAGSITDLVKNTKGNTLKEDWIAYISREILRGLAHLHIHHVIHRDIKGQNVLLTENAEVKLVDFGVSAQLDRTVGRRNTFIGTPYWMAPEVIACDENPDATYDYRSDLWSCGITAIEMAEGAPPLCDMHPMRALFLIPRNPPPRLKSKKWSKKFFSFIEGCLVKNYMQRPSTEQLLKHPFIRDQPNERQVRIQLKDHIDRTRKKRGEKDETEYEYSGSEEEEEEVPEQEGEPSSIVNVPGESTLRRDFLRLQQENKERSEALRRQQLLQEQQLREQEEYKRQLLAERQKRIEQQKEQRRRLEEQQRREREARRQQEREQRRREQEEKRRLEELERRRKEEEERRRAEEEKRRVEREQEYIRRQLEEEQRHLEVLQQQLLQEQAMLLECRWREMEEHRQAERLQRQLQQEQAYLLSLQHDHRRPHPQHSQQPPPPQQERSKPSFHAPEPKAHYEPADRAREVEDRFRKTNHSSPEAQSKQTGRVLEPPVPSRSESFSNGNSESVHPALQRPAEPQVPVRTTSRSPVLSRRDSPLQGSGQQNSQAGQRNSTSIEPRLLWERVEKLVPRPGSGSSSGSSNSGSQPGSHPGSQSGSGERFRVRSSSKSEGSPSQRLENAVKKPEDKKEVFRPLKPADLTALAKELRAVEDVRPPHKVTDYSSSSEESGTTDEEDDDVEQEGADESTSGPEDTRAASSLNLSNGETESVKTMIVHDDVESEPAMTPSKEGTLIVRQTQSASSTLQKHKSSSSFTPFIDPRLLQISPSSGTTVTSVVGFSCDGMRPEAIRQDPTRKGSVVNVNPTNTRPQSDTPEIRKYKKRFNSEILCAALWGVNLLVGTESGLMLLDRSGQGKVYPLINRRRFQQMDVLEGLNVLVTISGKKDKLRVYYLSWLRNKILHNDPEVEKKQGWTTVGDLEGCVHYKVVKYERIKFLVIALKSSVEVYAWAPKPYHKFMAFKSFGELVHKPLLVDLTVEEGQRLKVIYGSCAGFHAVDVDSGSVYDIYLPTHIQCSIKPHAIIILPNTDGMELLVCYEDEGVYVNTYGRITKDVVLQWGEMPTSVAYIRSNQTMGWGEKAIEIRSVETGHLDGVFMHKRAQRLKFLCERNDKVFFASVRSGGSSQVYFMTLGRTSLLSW
Sequence of MAP2K5 (human) (Q13163 whole entry, looked up): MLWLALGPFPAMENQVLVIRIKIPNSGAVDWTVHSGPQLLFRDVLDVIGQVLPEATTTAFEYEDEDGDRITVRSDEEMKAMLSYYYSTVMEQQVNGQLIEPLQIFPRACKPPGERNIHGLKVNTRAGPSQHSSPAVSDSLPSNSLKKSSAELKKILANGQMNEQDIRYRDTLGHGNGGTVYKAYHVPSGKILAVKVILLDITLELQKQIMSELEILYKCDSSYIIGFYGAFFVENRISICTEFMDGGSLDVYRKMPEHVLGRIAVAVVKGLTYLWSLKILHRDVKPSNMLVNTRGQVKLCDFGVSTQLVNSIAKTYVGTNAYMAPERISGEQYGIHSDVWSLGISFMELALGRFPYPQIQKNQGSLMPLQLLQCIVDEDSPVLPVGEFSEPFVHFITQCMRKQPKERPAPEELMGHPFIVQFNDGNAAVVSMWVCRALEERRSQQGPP
Sequence of TGFBR1 (human) (P36897 whole entry, looked up): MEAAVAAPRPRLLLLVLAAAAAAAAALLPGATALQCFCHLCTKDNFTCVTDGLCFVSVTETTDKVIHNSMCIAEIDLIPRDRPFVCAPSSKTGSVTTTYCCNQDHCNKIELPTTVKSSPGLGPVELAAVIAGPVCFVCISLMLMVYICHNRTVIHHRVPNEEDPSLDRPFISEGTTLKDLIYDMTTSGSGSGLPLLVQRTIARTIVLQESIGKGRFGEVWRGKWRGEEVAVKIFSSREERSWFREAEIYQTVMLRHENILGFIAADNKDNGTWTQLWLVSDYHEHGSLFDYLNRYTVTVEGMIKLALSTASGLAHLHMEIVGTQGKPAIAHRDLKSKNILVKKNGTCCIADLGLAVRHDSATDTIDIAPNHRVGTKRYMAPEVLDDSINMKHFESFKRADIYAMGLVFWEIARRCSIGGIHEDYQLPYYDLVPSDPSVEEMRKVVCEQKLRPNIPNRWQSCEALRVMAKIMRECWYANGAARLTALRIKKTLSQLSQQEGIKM
Sequence of PKN3 (M.tuberculosis) (Q6P5Z2 whole entry, looked up): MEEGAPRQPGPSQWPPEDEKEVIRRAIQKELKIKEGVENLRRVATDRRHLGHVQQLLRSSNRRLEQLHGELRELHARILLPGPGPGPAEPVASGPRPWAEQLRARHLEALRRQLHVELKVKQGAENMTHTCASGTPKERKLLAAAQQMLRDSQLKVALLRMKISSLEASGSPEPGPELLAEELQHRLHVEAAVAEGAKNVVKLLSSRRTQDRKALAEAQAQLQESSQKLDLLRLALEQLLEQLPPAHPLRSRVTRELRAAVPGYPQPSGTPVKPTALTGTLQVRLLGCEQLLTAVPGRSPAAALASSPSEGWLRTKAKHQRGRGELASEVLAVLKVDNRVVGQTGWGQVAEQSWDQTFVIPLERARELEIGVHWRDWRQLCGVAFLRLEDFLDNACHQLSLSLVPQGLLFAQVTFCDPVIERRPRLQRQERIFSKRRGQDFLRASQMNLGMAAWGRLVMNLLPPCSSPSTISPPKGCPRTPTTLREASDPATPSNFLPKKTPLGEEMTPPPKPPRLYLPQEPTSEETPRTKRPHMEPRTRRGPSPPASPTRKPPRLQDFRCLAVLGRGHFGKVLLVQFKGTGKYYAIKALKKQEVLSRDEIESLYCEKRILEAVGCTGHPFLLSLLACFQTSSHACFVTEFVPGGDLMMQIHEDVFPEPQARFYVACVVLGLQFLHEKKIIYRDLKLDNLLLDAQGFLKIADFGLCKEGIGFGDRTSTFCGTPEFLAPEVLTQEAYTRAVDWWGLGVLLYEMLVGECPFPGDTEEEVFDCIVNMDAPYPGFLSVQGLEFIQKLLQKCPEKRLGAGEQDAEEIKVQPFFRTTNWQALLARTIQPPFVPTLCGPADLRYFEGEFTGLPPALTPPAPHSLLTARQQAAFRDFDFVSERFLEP
Sequence of TAOK3 (human) (Q9H2K8 whole entry, looked up): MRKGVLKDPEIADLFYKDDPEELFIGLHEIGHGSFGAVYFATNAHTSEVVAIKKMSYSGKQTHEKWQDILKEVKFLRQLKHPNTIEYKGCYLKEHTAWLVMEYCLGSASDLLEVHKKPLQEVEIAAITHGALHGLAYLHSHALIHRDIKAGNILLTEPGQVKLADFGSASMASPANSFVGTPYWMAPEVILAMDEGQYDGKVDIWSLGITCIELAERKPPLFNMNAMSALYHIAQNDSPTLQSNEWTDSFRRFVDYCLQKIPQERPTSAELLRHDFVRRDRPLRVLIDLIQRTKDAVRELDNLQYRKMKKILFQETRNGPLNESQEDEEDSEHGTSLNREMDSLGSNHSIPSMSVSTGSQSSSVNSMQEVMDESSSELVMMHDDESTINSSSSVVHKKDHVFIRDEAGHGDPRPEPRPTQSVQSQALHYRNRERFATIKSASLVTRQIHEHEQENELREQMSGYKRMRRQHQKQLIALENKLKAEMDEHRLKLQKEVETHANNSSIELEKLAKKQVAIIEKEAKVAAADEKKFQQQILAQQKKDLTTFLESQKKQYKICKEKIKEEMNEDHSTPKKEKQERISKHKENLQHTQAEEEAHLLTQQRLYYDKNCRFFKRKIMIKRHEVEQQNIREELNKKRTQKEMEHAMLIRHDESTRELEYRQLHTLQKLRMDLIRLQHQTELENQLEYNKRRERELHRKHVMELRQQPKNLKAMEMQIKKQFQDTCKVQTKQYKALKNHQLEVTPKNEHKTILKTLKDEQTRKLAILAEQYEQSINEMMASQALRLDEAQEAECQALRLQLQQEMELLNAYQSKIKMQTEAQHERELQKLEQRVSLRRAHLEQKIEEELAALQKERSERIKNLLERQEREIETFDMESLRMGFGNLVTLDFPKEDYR
Sequence of FER (human) (P16591 whole entry, looked up): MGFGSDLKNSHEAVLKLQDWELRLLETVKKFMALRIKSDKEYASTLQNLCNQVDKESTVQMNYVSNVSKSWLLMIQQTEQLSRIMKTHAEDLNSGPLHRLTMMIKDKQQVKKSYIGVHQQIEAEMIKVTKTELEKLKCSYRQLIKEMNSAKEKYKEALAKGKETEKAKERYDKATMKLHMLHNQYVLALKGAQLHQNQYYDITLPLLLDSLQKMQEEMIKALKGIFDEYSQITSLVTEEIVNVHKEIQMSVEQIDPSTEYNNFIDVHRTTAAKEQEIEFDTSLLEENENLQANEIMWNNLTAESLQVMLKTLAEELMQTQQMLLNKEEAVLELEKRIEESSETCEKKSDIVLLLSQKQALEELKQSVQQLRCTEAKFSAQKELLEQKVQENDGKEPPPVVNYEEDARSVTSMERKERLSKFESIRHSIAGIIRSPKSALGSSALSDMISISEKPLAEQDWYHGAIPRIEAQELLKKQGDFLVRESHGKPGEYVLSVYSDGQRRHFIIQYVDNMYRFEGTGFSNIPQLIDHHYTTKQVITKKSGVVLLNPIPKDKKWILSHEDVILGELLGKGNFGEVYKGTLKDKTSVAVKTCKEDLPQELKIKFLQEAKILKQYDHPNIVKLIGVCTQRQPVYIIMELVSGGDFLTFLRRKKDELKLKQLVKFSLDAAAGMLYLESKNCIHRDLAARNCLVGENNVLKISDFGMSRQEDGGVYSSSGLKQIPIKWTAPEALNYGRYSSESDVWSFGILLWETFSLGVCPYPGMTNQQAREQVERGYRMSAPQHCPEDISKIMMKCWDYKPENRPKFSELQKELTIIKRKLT

| Structure (SMILES) | kinase still bound, per cent of control (ACVR1B (human)) | kinase still bound, per cent of control (BMPR1A (human)) | kinase still bound, per cent of control (BMPR1B (human)) | kinase still bound, per cent of control (BRSK1 (human)) | kinase still bound, per cent of control (CAMK4 (human)) | kinase still bound, per cent of control (CAMKK1 (human)) | kinase still bound, per cent of control (CLK4 (human)) | kinase still bound, per cent of control (DAPK3 (human)) | kinase still bound, per cent of control (DDR2 (human)) | kinase still bound, per cent of control (EPHA2 (human)) | kinase still bound, per cent of control (FER (human)) | kinase still bound, per cent of control (FES (human)) | kinase still bound, per cent of control (FGFR2 (human)) | kinase still bound, per cent of control (FLT4 (human)) | kinase still bound, per cent of control (IGF1R (human)) | kinase still bound, per cent of control (MAK (human)) | kinase still bound, per cent of control (MAP2K3 (human)) | kinase still bound, per cent of control (MAP2K5 (human)) | kinase still bound, per cent of control (MAP4K4 (human)) | kinase still bound, per cent of control (MAPK14 (human)) | further results |
| --- | --- | --- | --- | --- | --- | --- | --- | --- | --- | --- | --- | --- | --- | --- | --- | --- | --- | --- | --- | --- | --- |
| O=C(Nc1cccc(Nc2ncc(Br)c(NCCc3cnc[nH]3)n2)c1)N1CCCC1 | 61% | 0.8% | 0% | 7.6% | 100% | 8.8% | 28% | 4% | 65% | 60% | 47% | 33% | 4.6% | 0.05% | 17% | 100% | 23% | 0.6% | 2.4% | 100% | kinase still bound, per cent of control (MAPK7 (human)): 62%; kinase still bound, per cent of control (MET (human)): 4.4%; kinase still bound, per cent of control (NEK2 (human)): 6.2%; kinase still bound, per cent of control (NLK (human)): 100%; kinase still bound, per cent of control (NUAK2 (human)): 3.8%; kinase still bound, per cent of control (PAK6 (human)): 11%; kinase still bound, per cent of control (PDGFRA (human)): 0.1%; kinase still bound, per cent of control (PHKG1 (human)): 2.3%; kinase still bound, per cent of control (PIK3C2G (human)): 25%; kinase still bound, per cent of control (PIM2 (human)): 100%; kinase still bound, per cent of control (PKN2 (human)): 4.6%; kinase still bound, per cent of control (PKN3 (M.tuberculosis)): 6.6%; kinase still bound, per cent of control (RET (human)): 0.1%; kinase still bound, per cent of control (RIOK1 (human)): 0%; kinase still bound, per cent of control (RPS6KA1 KD1 (human)): 4.3%; kinase still bound, per cent of control (RPS6KA6 KD1 (human)): 0.6%; kinase still bound, per cent of control (STK10 (human)): 4.6%; kinase still bound, per cent of control (TAOK3 (human)): 0.1%; kinase still bound, per cent of control (TGFBR1 (human)): 77%; kinase still bound, per cent of control (ULK1 (human)): 0.05% |
| O=C1NC(=O)/C(=C/c2ccc3nccc(-c4ccncc4)c3c2)S1 | 51% | 2% | 3.7% | 73% | 100% | 12% | 0.2% | 0.6% | 63% | 95% | 50% | 100% | 100% | 98% | 100% | 100% | 35% | 46% | 41% and 47% | 100% | kinase still bound, per cent of control (MAPK7 (human)): 59%; kinase still bound, per cent of control (MET (human)): 32%; kinase still bound, per cent of control (NEK2 (human)): 64%; kinase still bound, per cent of control (NLK (human)): 84%; kinase still bound, per cent of control (NUAK2 (human)): 36%; kinase still bound, per cent of control (PAK6 (human)): 83%; kinase still bound, per cent of control (PDGFRA (human)): 67%; kinase still bound, per cent of control (PHKG1 (human)): 31%; kinase still bound, per cent of control (PIK3C2G (human)): 3.8%; kinase still bound, per cent of control (PIM2 (human)): 1%; kinase still bound, per cent of control (PKN2 (human)): 31%; kinase still bound, per cent of control (PKN3 (M.tuberculosis)): 36%; kinase still bound, per cent of control (RET (human)): 98%; kinase still bound, per cent of control (RIOK1 (human)): 1%; kinase still bound, per cent of control (RPS6KA1 KD1 (human)): 51%; kinase still bound, per cent of control (RPS6KA6 KD1 (human)): 45%; kinase still bound, per cent of control (STK10 (human)): 0.1%; kinase still bound, per cent of control (TAOK3 (human)): 13%; kinase still bound, per cent of control (TGFBR1 (human)): 20%; kinase still bound, per cent of control (ULK1 (human)): 74% |
